Assay results from PubChem BioAssay (NCI).
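Following 48 hours of exposure in 96-well plates, responses at five concentrations were used to interpolate endpoints linearly. Abbreviation: GI50, concentration required for 50% inhibition of growth. Definition used: TGI = concentration required for complete inhibition of growth.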

Experiments:
Assay in all cases: NCI-60 cell line screen, 48 h
HCT-15 colon = system: HCT-15 colon
K-562 leukemia = system: K-562 leukemia
MDA-MB-231 breast = system: MDA-MB-231 breast
MOLT-4 leukemia = system: MOLT-4 leukemia
NCI-H23 lung = system: NCI-H23 lung
NCI/ADR-RES ovarian = system: NCI/ADR-RES ovarian
OVCAR-4 ovarian = system: OVCAR-4 ovarian
RPMI-8226 leukemia = system: RPMI-8226 leukemia
SN12C renal = system: SN12C renal
TK-10 renal = system: TK-10 renal

Structure (SMILES)	GI50 (HCT-15 colon) [µM]	TGI (HCT-15 colon) [µM]	GI50 (K-562 leukemia) [µM]	TGI (K-562 leukemia) [µM]	GI50 (MDA-MB-231 breast) [µM]	TGI (MDA-MB-231 breast) [µM]	GI50 (MOLT-4 leukemia) [µM]	TGI (MOLT-4 leukemia) [µM]	GI50 (NCI-H23 lung) [µM]	TGI (NCI-H23 lung) [µM]	GI50 (NCI/ADR-RES ovarian) [µM]	TGI (NCI/ADR-RES ovarian) [µM]	GI50 (OVCAR-4 ovarian) [µM]	TGI (OVCAR-4 ovarian) [µM]	GI50 (RPMI-8226 leukemia) [µM]	TGI (RPMI-8226 leukemia) [µM]	GI50 (SN12C renal) [µM]	TGI (SN12C renal) [µM]	GI50 (TK-10 renal) [µM]	TGI (TK-10 renal) [µM]
O=C(Nc1n[nH]c2cc(-c3ccc(F)cc3)ccc12)C1CC1	5.7	> 25	3.69	> 25	12.6	> 25	10.4	> 25	7.18	> 25	5.27	22.6	9.87	> 25	8.44	> 25	10.8	> 25	> 20.8	> 25
O=C(Nc1c(Cl)cccc1Cl)Oc1cccc2cccnc12	0.992	> 100	4.52	> 100	4.24	25.3	3.96	28.4	4.07	45.5	2.73	27.9	2.9	14	3.64	47.7	4.61	> 100	8.98	> 100
NS(=O)(=O)c1ccc(NC(=O)Nc2cccc3ccccc23)cc1		> 100		> 100		41.1		> 100		> 100		> 100		> 100		> 100		> 100		> 100
c1ccc(OCC[P+](c2ccccc2)(c2ccccc2)c2ccccc2)cc1	12	> 100	0.743	> 85.5	2.44	23.9	3.89	27.2	0.938	6.7	> 66.1	> 100	0.66	9.44	0.187	2.14	1.94	16.4	1.73	14.5
OCC1OC(N2CCN(C3OC(CO)C(O)C(O)C3O)CC2)C(O)C(O)C1O (stereo not given)		> 100		> 100		> 100		> 100		> 100		> 100		> 100		> 100		> 100		> 100
Cc1ccc2c(c1)n([O-])c(C(F)(F)F)c(C(=O)c1ccco1)[n+]2=O	0.562	7.62	1.1	34.5	0.929	2.65	14.6	50	0.433	1.52	0.74	3.55	0.627	1.89	0.357	2.69	0.833	2.5	1.94	8.74
COC(=O)C1(N2CCOCC2)CCC([C@@H](c2ccccc2)C(C)[N+](=O)[O-])C1 (stereo not given in full)		> 100		> 100		> 100		> 100		> 100		> 100		> 100		42.9		> 100		> 100
O=C(Nc1ccc(-c2cn3ccccc3n2)cc1)c1cc(Br)ccc1O		> 100		> 100		> 100		> 100		> 100		> 100		> 100		> 100		> 100		> 100
O=C(COc1ccc(Cl)cc1Cl)NNc1ccc([N+](=O)[O-])cc1	> 100	> 100	39	> 100	30.8	> 100	81.6	> 100	41.5	> 100	84	> 100	> 100	> 100	> 100	> 100	80	> 100	30.1	74.2
Nc1cc2c3ccccc3ccc2c2ccccc12	3.92	> 100	19.3	> 100	7.36	> 100	> 100	> 100	> 100	> 100	> 93.7	> 100	> 22.5	> 100	> 45.9	> 100	> 100	> 100	> 100	> 100
COc1ccc(C2CC(=O)Nc3c2c(C)nn3-c2nc3ccccc3[nH]2)cc1OC (stereo not given)	4.76	> 58.9	4.81	> 100	4.39	21	0.0405	0.27	3.66	22.1	12	> 100	6.42	> 100	3.08	8.68	5.96	35.5	8.95	93.5
C=C1[C@H](O)C[C@@H](C(C)C(O)CC=C(C)C)[C@@H](O)[C@@H]2C(C)=CC[C@@H]12 (stereo not given in full)	> 100	> 100	53	> 100	> 100	> 100	35.1	> 100	> 100	> 100	> 100	> 100	> 100	> 100	> 100	> 100	> 100	> 100	> 100	> 100
